Earlier results as cited in patent publication US20240245680A1, “Methods of Treating Retinal Vasculopathies” (Unity Biotechnology, Inc., priority 2021, published 2024).

Tests used:
glutaminase C (GAC) = target: T1, glutaminase C (GAC) (Homo sapiens, UniProt O94925); details: cited from earlier work
T1 sequence (O94925 55-598 isoform O94925-3 limits assumed): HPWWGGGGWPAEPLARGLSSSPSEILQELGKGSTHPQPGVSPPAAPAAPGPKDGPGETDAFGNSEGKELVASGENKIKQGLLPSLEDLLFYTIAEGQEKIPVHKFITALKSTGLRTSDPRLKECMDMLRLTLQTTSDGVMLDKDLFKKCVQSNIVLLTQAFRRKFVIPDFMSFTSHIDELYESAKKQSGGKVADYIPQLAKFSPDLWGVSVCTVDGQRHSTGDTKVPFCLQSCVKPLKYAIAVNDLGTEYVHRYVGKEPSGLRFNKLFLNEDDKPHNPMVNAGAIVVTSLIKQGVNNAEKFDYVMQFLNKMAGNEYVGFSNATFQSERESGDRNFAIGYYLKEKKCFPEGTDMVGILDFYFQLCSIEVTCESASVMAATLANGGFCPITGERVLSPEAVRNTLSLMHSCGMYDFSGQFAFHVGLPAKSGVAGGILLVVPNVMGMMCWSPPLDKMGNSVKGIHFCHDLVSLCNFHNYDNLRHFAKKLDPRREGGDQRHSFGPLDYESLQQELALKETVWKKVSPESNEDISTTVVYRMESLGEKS

GLS2 = target: T2, GLS2 (Homo sapiens, UniProt Q9UI32); details: cited from earlier work
T2 sequence (Q9UI32 15-602): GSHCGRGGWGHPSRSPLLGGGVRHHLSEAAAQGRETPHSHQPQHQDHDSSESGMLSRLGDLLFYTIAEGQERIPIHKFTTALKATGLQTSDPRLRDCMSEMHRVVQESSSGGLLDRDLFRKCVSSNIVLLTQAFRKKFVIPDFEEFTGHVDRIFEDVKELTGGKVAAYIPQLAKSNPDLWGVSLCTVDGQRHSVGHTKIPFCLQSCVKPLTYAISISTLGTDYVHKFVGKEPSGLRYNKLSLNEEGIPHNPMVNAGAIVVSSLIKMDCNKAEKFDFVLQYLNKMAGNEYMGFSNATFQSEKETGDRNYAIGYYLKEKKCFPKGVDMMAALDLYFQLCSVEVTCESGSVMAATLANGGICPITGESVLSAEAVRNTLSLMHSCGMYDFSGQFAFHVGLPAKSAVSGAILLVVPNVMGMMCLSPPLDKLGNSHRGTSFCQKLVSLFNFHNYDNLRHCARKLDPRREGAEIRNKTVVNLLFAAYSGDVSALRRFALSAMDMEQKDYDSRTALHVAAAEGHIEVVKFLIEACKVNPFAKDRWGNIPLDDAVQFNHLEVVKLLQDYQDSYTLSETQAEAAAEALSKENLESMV

## O=C(Cc1ccccc1)Nc1nnc(NC2CCN(c3nnc(NC(=O)Cc4ccccc4)s3)CC2)s1 [UPGL00004]
Glutaminase C (GAC)
  IC50: 29 nM
GLS2
  selectivity for GAC over GLS2: high selectivity
